Data published in patent publication US20260324636A1, “COMPOSITION FOR PROVIDING PLANT WITH STRESS RESISTANCE” (KIRIN HOLDINGS KABUSHIKI KAISHA, priority 2022, published 2026).

What was measured:
ZAT10 = ZAT10 gene expression by real-time PCR, Example 11; format: in vivo; conditions: Arabidopsis thaliana; 0.4 mM, 22° C. for 2 hours; read-out: ZAT10 expression level, increase vs control
Protocol: (§1) The materials as used in Example 1 were used.
The medium as used in Example 1 was used.
To the Arabidopsis thaliana plants grown for 7 days in the same manner as in Example 1, 0.4 mM N-acetylglutamic acid or an equivalent amount of sterile water was added, and the plants were incubated at 22° C. for 2 hours. After incubation for 2 hours, the samples were frozen with liquid nitrogen, and RNA was extracted using the RNeasy Plant Mini Kit […].
cDNA that would be necessary as a real-time PCR template was synthesized from the RNA obtained. 1000 ng total RNA was used for each sample, and cDNA was synthesized using the Verso cDNA Synthesis Kit (Thermo Fischer Scientific). The synthesized cDNA was diluted to 5-fold with sterile distilled water and subjected to real-time PCR. For real-time PCR, a reaction solution containing ZAT10 (AGI code: AT1G27730) and ZAT12 (AGI code: AT5G59820) as the target genes, PP2AA3 (AGI code: AT1G13320) as the reference gene, and TB Green Ex Taq II (TakaRa) was prepared. PCR was performed with the use of the LightCycler® 480 System (Roche) with the number of amplification cycles of 50. The primers shown below were used.
Thereafter, the relative expression levels of the target genes upon N-acetylglutamic acid treatment were calculated by the ΔΔCt method using the Cp values obtained by real-time PCR.

H1ZAT12 = H1ZAT12 gene expression by real-time PCR, Example 13; format: in vivo, hop; conditions: 1 mM in medium, 20° C. for 2 hours, leaves; read-out: H1ZAT12 expression level, increase vs control
Source text: The materials as used in Example 4 were used.
The medium as used in Example 4 were used.
In order to design primers for the target genes necessary for gene expression analysis by real-time PCR, homologs of Arabidopsis thaliana oxidation stress-responsive genes in hop were searched for. The amino acid sequences of Arabidopsis thaliana ZAT10 (AGI code: AT1G27730) and ZAT12 (AGI code: AT5G59820) were obtained from TAIR (https://www.arabidopsis.org/), and the nucleotide sequences of the gene homologs were obtained using Hopbase (http:/hopbase.cgrb.oregonstate.edu/). […] As the reference gene, the nucleotide sequence of the homolog of Arabidopsis thaliana EF1α (AGI code: AT1G18070) was obtained. The hop homolog genes were designated as H1ZAT10, H1ZAT12, and HIEF1α, respectively.
The leaves in the first and the second nodes from the apical buds of the tissue-cultured seedlings were sampled 1.5 months after the initiation of subculture and inoculated into a liquid medium consisting of a ½ Murashige and Skoog Plant Salt Mixture and 2 (w/v) % glucose. Specifically, a liquid medium was dispensed at 5 ml/well to a 6-well microplate, and 5 hop leaves were mounted thereon. […]
Thereafter, the relative expression levels of the target genes upon N-acetylglutamic acid treatment were calculated by the ΔΔCt method.

HSFA2 = HSFA2 gene expression by real-time PCR, Example 5; format: in vivo; conditions: Arabidopsis thaliana; 0.1 mM in medium, 2 hours after application, 22° C.; read-out: HSFA2 expression level, increase vs group not subjected to the treatment
Protocol: as §1
The method as employed in Example 1 was employed.
N-acetylglutamic acid was applied to Arabidopsis thaliana 7 days after inoculation to the final concentration of 0.1 mM in the medium, followed by incubation for 2 hours or 6 hours. The incubator was maintained at a temperature of 22° C. for a daily cycle of 16 hours light and 8 hours darkness. After incubation, the samples were frozen with liquid nitrogen, and RNA was extracted using the RNeasy Plant Mini Kit (Thermo Fischer Scientific).
cDNA that would be necessary as a real-time PCR template was synthesized from the RNA obtained. 500 ng total RNA was used for each sample, and cDNA was synthesized using the Verso cDNA Synthesis Kit (Thermo Fischer Scientific). The synthesized cDNA was diluted to 5-fold with sterile distilled water and subjected to real-time PCR. For real-time PCR, a reaction solution containing HSFA2 (AGI code: AT2G26150) and HSP17.6C (AGI code: AT1G53540) as the target genes, ACTIN2 (AGI code: AT3G18780) as the reference gene, and TB Green Ex Taq II (TaKaRa) was prepared. PCR was performed with the use of the LightCycler® 480 System (Roche) with the number of amplification cycles of 50. […]
Thereafter, the relative expression level of the target genes upon N-acetylglutamic acid treatment were calculated by the ΔΔCt method using the Cp values obtained by real-time PCR.

rice = experiment: High-temperature stress resistance in rice (fresh weight of aboveground part), Example 3; format: in vivo, rice (variety: Nipponbare); conditions: 0.5 mM in medium, 24 h before 44° C. for 3 hours, then 22° C. 3 days
Protocol: A wild-type rice strain (the variety: Nipponbare) was used as an experimental material. Seeds were purchased from Nouken (https://nouken-seed.shop-pro.jp/).
A liquid medium consisting of a ½ Murashige and Skoog Plant Salt Mixture (Nacalai) was used as a growth medium.
With the use of a 50-ml Falcon tube, rice seeds were sterilized for 30 minutes with the use of a Kitchen Haiter® liquid (Kao Corporation) diluted to one-half concentration with distilled water for 30 minutes and washed 5 times with sterile distilled water. The tube was laid down, sterile distilled water was introduced thereinto in an amount that would sufficiently soak the washed seeds, and culture was performed in an incubator for 3 days to germinate the seeds. The incubator was maintained at a temperature of 30° C. for a daily cycle of 16 hours light and 8 hours darkness.
The growth medium was dispensed at 3 ml/well on a 12-well microplate (IWAKI) 3 days after the initiation of incubation, 3 grains of the germinated seeds were inoculated in each well, and the resultants were handled as experimental materials. […]
High-temperature treatment was performed with the use of an incubator. […] Thereafter, the plate was incubated in an incubator maintained at 22° C. for 3 days, plants were collected, and the fresh weight of the aboveground part excluding seeds and roots was quantified.

## CC(=O)N[C@@H](CCC(=O)O)C(=O)O [N-acetylglutamic acid]
ZAT10
  fold induction at 400 µM: 28
H1ZAT12
  fold induction at 1000 µM: 1.9
HSFA2
  fold induction at 100 µM: 2.5
rice
  decrease in the fresh weight of the aboveground part caused by high-temperature treatment: suppressed to a significant extent
